{"source": "patent US6433220B1", "about": "(RPC Inc., priority 1998, dated 2002)", "key": {"[1]": {"settings": "cited from earlier work; for EN (normalized solvent polarity parameter): water and tetramethylsilane as extreme reference solvents; for ET (solvent polarity parameter): solvatochromic absorption of betaine dye"}, "[2]": {"settings": "cited from earlier work"}, "[3]": {"assay": "Solubility of cobalt ion in the combination solvent", "format": "physicochemical", "settings": "cyclohexanone/water combination solvent", "from_the_text": "The above profound and unexpected attributes (considerable increase of dibasic acid solubility combined with considerable decrease of cobalt ion solubility in the novel combination solvent) are primarily responsible for a clean extraction of the cobalt ion with water from the rest of the reaction mixture, which remains dissolved in the combination solvent of the instant invention."}}, "note": "Read-outs that look alike come from different tables or passages of the source."}
{"compound": "O=C1CCCCC1", "note": "[Cyclohexanone]", "values": [{"measurement": "EN (normalized solvent polarity parameter)", "setting": "[1]", "result": 0.281}, {"measurement": "mol % CHxO (solubility of cyclohexanone in water)", "setting": "[2]; 20 °C", "result": 1.98, "unit": "% mol %"}, {"measurement": "wt % CHxO (solubility of cyclohexanone in water)", "setting": "[2]; 20 °C", "result": 10.00, "unit": "% wt %"}, {"measurement": "mol % CHxO (solubility of cyclohexanone in water)", "setting": "[2]; 25 °C", "result": 1.85, "unit": "% mol %"}, {"measurement": "wt % CHxO (solubility of cyclohexanone in water)", "setting": "[2]; 25 °C", "result": 9.39, "unit": "% wt %"}, {"measurement": "mol % CHxO (solubility of cyclohexanone in water)", "setting": "[2]; 30 °C", "result": 1.73, "unit": "% mol %"}, {"measurement": "wt % CHxO (solubility of cyclohexanone in water)", "setting": "[2]; 30 °C", "result": 8.83, "unit": "% wt %"}, {"measurement": "mol % CHxO (solubility of cyclohexanone in water)", "setting": "[2]; 50 °C", "result": 1.43, "unit": "% mol %"}, {"measurement": "wt % CHxO (solubility of cyclohexanone in water)", "setting": "[2]; 50 °C", "result": 7.39, "unit": "% wt %"}, {"measurement": "mol % CHxO (solubility of cyclohexanone in water)", "setting": "[2]; 70 °C", "result": 1.34, "unit": "% mol %"}, {"measurement": "wt % CHxO (solubility of cyclohexanone in water)", "setting": "[2]; 70 °C", "result": 6.95, "unit": "% wt %"}, {"measurement": "mol % CHxO (solubility of cyclohexanone in water)", "setting": "[2]; 90 °C", "result": 1.44, "unit": "% mol %"}, {"measurement": "wt % CHxO (solubility of cyclohexanone in water)", "setting": "[2]; 90 °C", "result": 7.44, "unit": "% wt %"}]}
{"compound": "CC(=O)O", "note": "[Acetic acid]", "values": [{"measurement": "EN (normalized solvent polarity parameter)", "setting": "[1]", "result": 0.648}]}
{"compound": "CCO", "note": "[Ethanol]", "values": [{"measurement": "EN (normalized solvent polarity parameter)", "setting": "[1]", "result": 0.654}]}
{"compound": "C1CCCCC1", "note": "[Cyclohexane]", "values": [{"measurement": "EN (normalized solvent polarity parameter)", "setting": "[1]", "result": 0.006}]}
{"compound": "O", "note": "[Water]", "values": [{"measurement": "ET (solvent polarity parameter)", "setting": "[1]", "result": 63.1, "unit": "kcal/mol"}, {"measurement": "EN (normalized solvent polarity parameter)", "setting": "[1]", "result": 1.000}]}
{"compound": "CCCCCC", "note": "[n-Hexane]", "values": [{"measurement": "EN (normalized solvent polarity parameter)", "setting": "[1]", "result": 0.009}]}
{"compound": "OC1CCCCC1", "note": "[Cyclohexanol]", "values": [{"measurement": "EN (normalized solvent polarity parameter)", "setting": "[1]", "result": 0.500}]}
{"compound": "c1ccc(Oc2ccccc2)cc1", "note": "[diphenyl ether]", "values": [{"measurement": "ET (solvent polarity parameter)", "setting": "[1]", "result": 35.3, "unit": "kcal/mol"}]}
{"compound": "cobalt ion", "values": [{"measurement": "solubility of the cobalt ion in the novel combination solvent", "setting": "[3]", "result": "decreases considerably"}]}
{"compound": "CO", "note": "[Methanol]", "values": [{"measurement": "EN (normalized solvent polarity parameter)", "setting": "[1]", "result": 0.762}]}
